Read-outs that look alike come from different tables or passages of the source.
Legend:
S1P3 = molecular target: T1, S1P3 (Homo sapiens, UniProt Q99500); experiment: S1P3 Tango β-arrestin recruitment assay in HEK293 cells (Assay 5); assay type: cell-based; settings: read-out: Assay 5 EC50
T1 construct: host or cells: HEK293 (transient transfection)
From the text: (§1) For the Tango™ β-arrestin recruitment assay, the cytoplasmic C-terminus of S1P1 was tethered to the tTA transcriptional activator with a linker that contains a cleavage site for the N1a protease from tobacco etch virus (TEV protease). The C-terminus of the human β-arrestin2 protein was fused to TEV protease. Binding of an agonist recruits the βl -arrestin-TEV fusion protein to the receptor resulting in cleavage of the linker and released of tTA to enter the nucleus and subsequently activated a tTA-dependent luciferase reporter gene.
Assay 2a: Frozen HEK293 cells transiently transfected with receptor cDNAs for S1P1 (Invitrogen) are thawed and suspended in 10 mL of Pro293a-CDM culture medium (Invitrogen) supplemented with 4 mM L-Glutamine (Invitrogen), 1× Pen/Strep (100 units/mL penicillin and 100 μg/mL streptomycin, Invitrogen) and 0.1% fatty acid free BSA (Sigma-Aldrich). Cells are added to the wells of a 384-well white opaque bottom assay plate (PerkinElmer) at 3,000-6,000 cells per well and the plate is incubated for approximately 4 h in a 37° C. incubator. Test compounds are tested at maximum concentrations of 10 μM for the agonist assays. Compounds are diluted in DMSO (10 concentration points, 3-fold each) and added to the assay plate at a 1% final DMSO concentration. For each compound, there are duplicate assay plates and each assay plate has duplicate wells per concentration point. The plate is incubated at 37° C. for 30 min. The efficacy control is 5 μM S1P (Avanti). Following agonist addition, the assay plates are incubated in a 37° C. incubator for 16-18 h. Luciferase assay reagent is added and luminescence measured in an EnVision plate reader (PerkinElmer). To determine agonist activity, percent activity is calculated as [(test compound−background)/(positive control−background)*100], where background is the luminescence of the DMSO alone control and the positive control is the luminescence from cells incubated with the efficacy control 5 μM S1P. The percent activities are plotted against compound concentration to determine EC50 using XLFit (IDBS).
This assay was conducted using the procedures described in Assay 2a, replacing S1P1 with S1P3.

[1] = molecular target: T2, hS1P1R (hEdg1) membrane protein (Homo sapiens, UniProt P21453); experiment: hS1P1R GTPγS binding assay (Assay 3a); assay type: biochemical
T2 construct: purchased Lonza
Description: Assay 3a: The hS1P1R GTPγS binding assay was carried out at room temperature in 96 well non-binding surface assay plates. The reaction in each well contained 4 μg hS1P1R (hEdg1) membrane protein (Lonza), 30 μM GDP, 0.1 nM [^35S]GTPγS, 0.25% fatty acid free BSA, and serially diluted hS1P1R agonist compound in 200 μL assay buffer (25 mM Tris-HCl PH 7.9, 100 mM NaCl, 3 mM MgCl2, and 0.2 mM EGTA). After one hour of incubation, 0.9 mg of WGA (Wheat Germ Agglutinin) SPA beads in 50 μL of assay buffer was added to each well. The SPA beads were spun down after an additional one hour incubation. The radioactivity of the bound GTPγS was counted by reading the assay plate using a MicroBeta.

S1P1 = molecular target: T3, S1P1 (Homo sapiens, UniProt P21453); experiment: Tango β-arrestin recruitment assay in U2OS cells (Assay 2b); assay type: cell-based
T3 construct: host or cells: U2OS
From the text: as §1
Assay 2b: Alternatively, U2OS cells expressing the reporter gene and S1P1 (Invitrogen) were added to the wells of a 384-well white opaque bottom assay plate (PerkinElmer) at […]. The cells were serum starved for 48 h in Freestyle medium (Invitrogen). Test compounds were tested at maximum concentrations of 1 μM for the agonist assay. Compounds were diluted in DMSO (10 concentration points, 3-fold each) and added to the assay plate at a 1% final DMSO concentration. The efficacy control was 1 μM S1P (Avanti). For each compound, there were duplicate assay plates and each assay plate had duplicate wells per concentration point. The plate was incubated overnight at 37° C. The GeneBLAzer β-lactamase assay reagent (Invitrogen) was added and the plates were incubated for an additional 2 h at room temperature. Fluorescence was measured using an EnVision plate reader (PerkinElmer, Waltham, Mass.) at an excitation wavelength of 409 nm and emission wavelengths of 460 nm and 530 nm. The emission intensity at each wavelength was background subtracted against wells containing medium only and the F460 nm/F530 nm ratio determined for each concentration of the test compounds. Percent activity was calculated as [(test compound ratio−DMSO ratio)/(positive control ratio−DMSO ratio)*100], where the positive control and DMSO ratios are from cells incubated with the efficacy control 1 μM S1P and 1% DMSO, respectively. The percent activities were plotted against compound concentration to determine EC50 using XLFit (IDBS).

[2] = molecular target: T4, hS1PR5 (hEdg8) membrane protein (Homo sapiens, UniProt Q9H228); experiment: hS1P5R GTPγS binding assay (Assay 4); assay type: biochemical
T4 construct: expressed in transfected cells; host or cells: CHO
Description: The hS1PR5 GTPγS binding assay was carried out at room temperature in 96-well non-binding surface assay plates. The reaction in each well contained 5 μg hS1PR5 (hEdg8) membrane protein from CHO cells expressing hS1PR5, 30 μM GDP, 0.1 nM [^35S]GTPγS, 0.25% fatty acid free BSA, and serially-diluted Compound of the Invention in 200 μL assay buffer (25 mM Tris-HCl PH 7.9, 100 mM NaCl, 3 mM MgCl2, and 0.2 mM EGTA). After one hour of incubation, 0.9 mg of WGA (Wheat Germ Agglutinin) SPA beads in 50 μL of assay buffer was added to each well. The SPA beads were spun down after an additional one hour incubation. The radioactivity of the bound GTPγS was counted by reading the assay plate using a MicroBeta.

T4 sequence (Q9H228 whole entry): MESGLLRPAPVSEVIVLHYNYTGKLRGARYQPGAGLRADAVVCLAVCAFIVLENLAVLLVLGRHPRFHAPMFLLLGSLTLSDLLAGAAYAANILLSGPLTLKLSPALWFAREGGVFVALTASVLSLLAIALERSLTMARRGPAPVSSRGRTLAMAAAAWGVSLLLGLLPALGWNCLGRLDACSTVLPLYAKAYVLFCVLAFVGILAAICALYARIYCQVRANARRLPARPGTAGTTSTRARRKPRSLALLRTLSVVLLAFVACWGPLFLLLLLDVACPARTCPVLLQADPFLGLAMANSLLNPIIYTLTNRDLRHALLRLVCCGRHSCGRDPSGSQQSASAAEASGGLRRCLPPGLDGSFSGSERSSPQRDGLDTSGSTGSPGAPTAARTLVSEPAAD
T2 sequence (P21453 whole entry): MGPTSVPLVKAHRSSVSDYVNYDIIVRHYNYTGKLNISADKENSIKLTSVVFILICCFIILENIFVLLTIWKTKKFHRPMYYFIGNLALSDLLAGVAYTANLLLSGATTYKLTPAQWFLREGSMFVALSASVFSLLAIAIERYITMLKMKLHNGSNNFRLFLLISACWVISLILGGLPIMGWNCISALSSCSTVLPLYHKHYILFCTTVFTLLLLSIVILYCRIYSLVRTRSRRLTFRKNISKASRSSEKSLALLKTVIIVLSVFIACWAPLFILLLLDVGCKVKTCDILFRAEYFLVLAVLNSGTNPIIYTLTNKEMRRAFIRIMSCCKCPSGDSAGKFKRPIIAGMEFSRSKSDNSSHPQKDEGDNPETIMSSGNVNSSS
T3 sequence (P32121 whole entry): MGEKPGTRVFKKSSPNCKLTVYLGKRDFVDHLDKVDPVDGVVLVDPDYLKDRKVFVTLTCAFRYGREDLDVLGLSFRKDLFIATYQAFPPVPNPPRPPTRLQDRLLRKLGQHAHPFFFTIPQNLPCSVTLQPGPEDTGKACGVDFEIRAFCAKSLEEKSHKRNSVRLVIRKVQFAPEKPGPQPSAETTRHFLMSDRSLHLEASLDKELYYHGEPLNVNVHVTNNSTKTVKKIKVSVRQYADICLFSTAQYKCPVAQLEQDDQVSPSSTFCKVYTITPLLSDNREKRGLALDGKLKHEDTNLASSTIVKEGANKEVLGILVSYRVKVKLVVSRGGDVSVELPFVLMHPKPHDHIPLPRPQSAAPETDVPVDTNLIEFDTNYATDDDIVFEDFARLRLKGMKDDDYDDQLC
T3 sequence (P21453 whole entry): as the sequence (P21453 whole entry) above
T1 sequence (P32121 whole entry): as the sequence (P32121 whole entry) above
T1 sequence (Q99500 whole entry): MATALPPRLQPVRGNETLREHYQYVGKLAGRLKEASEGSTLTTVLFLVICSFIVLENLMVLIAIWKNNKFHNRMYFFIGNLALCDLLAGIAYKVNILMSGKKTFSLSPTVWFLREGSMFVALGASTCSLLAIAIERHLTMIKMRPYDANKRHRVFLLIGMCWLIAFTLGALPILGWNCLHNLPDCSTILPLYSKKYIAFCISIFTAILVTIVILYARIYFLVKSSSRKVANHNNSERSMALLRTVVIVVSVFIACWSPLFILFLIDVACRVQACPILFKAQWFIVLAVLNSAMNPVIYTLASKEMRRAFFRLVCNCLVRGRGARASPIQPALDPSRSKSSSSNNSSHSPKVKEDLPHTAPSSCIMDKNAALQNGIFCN

Compound | EC50 (S1P3) [nM] | EC50 [1] [nM] | EC50 (S1P1; read-out: Assay 2b EC50) [nM] | EC50 [2] [nM] | EC50 (S1P1; * = rEC50 measured rather than EC50, read-out: Assay 2b rEC50 (relative EC50, cells marked *)) [nM]
CC(C)N(C)c1ccc(-c2nnc(-c3cc(F)c(OCC(N)CO)cc3Cl)s2)cn1 (stereo not shown) [Entry 36, 2-amino-3-{[5-chloro-2-fluoro-4-(5-{6-[methyl(1-methylethyl)amino]pyridin-3-yl}-1,3,4-thiadiazol-2-yl)phenyl]oxy}propan-1-ol] | ≤ 250 | 250 to 2800 | ≤ 10 |  | 
CC(C)Nc1cc(-c2nnc(-c3cc(F)c(OC[C@H](N)[C@H](C)O)cc3Cl)s2)ccn1 [Entry 58, (2S,3S)-3-amino-4-{[5-chloro-2-fluoro-4-(5-{2-[(1-methylethyl)amino]pyridin-4-yl}-1,3,4-thiadiazol-2-yl)phenyl]oxy}butan-2-ol] |  | 50 to 250 | 250 to 2800 | 250 to 2800 | 
N[C@H](CO)COc1cc(Cl)c(-c2nnc(-c3cc(Br)cc(OC(F)(F)F)c3)s2)cc1F [Entry 28, (2R)-2-amino-3-{[4-(5-{3-bromo-5-[(trifluoromethyl)oxy]phenyl}-1,3,4-thiadiazol-2-yl)-5-chloro-2-fluorophenyl]oxy}propan-1-ol] | > 10000 | 50 to 250 | 50 to 250 |  | 
CC(C)Oc1ccc(-c2nnc(-c3cc(F)c(OC[C@H](N)CO)cc3Cl)s2)cc1F [Entry 42, (2R)-2-amino-3-{[5-chloro-2-fluoro-4-(5-{3-fluoro-4-[(1-methylethyl)oxy]phenyl}-1,3,4-thiadiazol-2-yl)phenyl]oxy}propan-1-ol] |  | 10 to 50 | 50 to 250 | 50 to 250 | 
N[C@H](CO)COc1cc(Cl)c(-c2nnc(-c3cc(Cl)cc(Br)c3)s2)cc1F [Entry 23, (2R)-2-amino-3-({4-[5-(3-bromo-5-chlorophenyl)-1,3,4-thiadiazol-2-yl]-5-chloro-2-fluorophenyl}oxy)propan-1-ol] |  | 250 to 2800 | 250 to 2800 | 250 to 2800 | 
NC(CO)COc1cc(Cl)c(-c2nnc(-c3cn4ccsc4n3)s2)cc1F (stereo not shown) [Entry 4, 2-amino-3-{[5-chloro-2-fluoro-4-(5-imidazo[2,1-b][1,3]thiazol-6-yl-1,3,4-thiadiazol-2-yl)phenyl]oxy}propan-1-ol] |  | > 10000 | 50 to 250 |  | 
N[C@H](CO)COc1cc(Cl)c(-c2nnc(-c3cc(Br)cc(Br)c3)s2)cc1F [Entry 30, (2R)-2-amino-3-({5-chloro-4-[5-(3,5-dibromophenyl)-1,3,4-thiadiazol-2-yl]-2-fluorophenyl}oxy)propan-1-ol] |  | 250 to 2800 | 250 to 2800 | 2800 to 10000 | 
N[C@H](CO)COc1cc(Cl)c(-c2nnc(-c3ccc(OC(F)(F)F)cc3)s2)cc1F [Entry 7, (2R)-2-amino-3-{[5-chloro-2-fluoro-4-(5-{4-[(trifluoromethyl)oxy]phenyl}-1,3,4-thiadiazol-2-yl)phenyl]oxy}propan-1-ol] |  | 50 to 250 | 250 to 2800 |  | 
CC(C)Oc1ccc(-c2nnc(-c3cc(F)c(OCC(N)CO)cc3Cl)s2)nc1Cl (stereo not shown) [Entry 14, 2-amino-3-{[5-chloro-4-(5-{6-chloro-5-[(1-methylethyl)oxy]pyridin-2-yl}-1,3,4-thiadiazol-2-yl)-2-fluorophenyl]oxy}propan-1-ol] | ≤ 250 | 10 to 50 | ≤ 10 |  | 
N[C@H](CO)COc1cc(Cl)c(-c2nnc(-c3cc(-c4ccccc4)c(C(F)(F)F)s3)s2)cc1F [Entry 84, (2R)-2-amino-3-[(5-chloro-2-fluoro-4-{5-[4-phenyl-5-(trifluoromethyl)-2-thienyl]-1,3,4-thiadiazol-2-yl}phenyl)oxy]propan-1-ol] |  |  | 250 to 2800 |  | 
CC(C)Oc1c(Cl)cc(-c2nnc(-c3cc(F)c(OC[C@H](N)CO)cc3Cl)s2)cc1Cl [Entry 26, (2R)-2-amino-3-{[5-chloro-4-(5-{3,5-dichloro-4-[(1-methylethyl)oxy]phenyl}-1,3,4-thiadiazol-2-yl)-2-fluorophenyl]oxy}propan-1-ol] |  | 50 to 250 | 250 to 2800 | 250 to 2800 | 

Continued, values first:

EC50 (S1P3) [nM] | EC50 [1] [nM] | EC50 (S1P1; read-out: Assay 2b EC50) [nM] | EC50 [2] [nM] | EC50 (S1P1; * = rEC50 measured rather than EC50, read-out: Assay 2b rEC50 (relative EC50, cells marked *)) [nM] | Compound
≤ 250 | 10 to 50 | ≤ 10 |  |  | CC(C)Oc1ccc(-c2nnc(-c3cc(F)c(OC[C@@H](N)CO)cc3Cl)s2)nc1Cl [Entry 33, (2S)-2-amino-3-{[5-chloro-4-(5-{6-chloro-5-[(1-methylethyl)oxy]pyridin-2-yl}-1,3,4-thiadiazol-2-yl)-2-fluorophenyl]oxy}propan-1-ol]
 | 50 to 250 | 250 to 2800 | 250 to 2800 |  | CCCOc1ccc(-c2nnc(-c3cc(F)c(OC[C@H](N)CO)cc3Cl)s2)cc1 [Entry 91, (2R)-2-amino-3-[(5-chloro-2-fluoro-4-{5-[4-(propyloxy)phenyl]-1,3,4-thiadiaozl-2-yl}phenyl)oxy]propan-1-ol]
> 10000 | 10 to 50 | 50 to 250 |  |  | CC(C)Oc1ccc(-c2nnc(-c3ccc(OC[C@H](N)CO)cc3Cl)s2)cc1Cl [Entry 34, (2R)-2-amino-3-{[3-chloro-4-(5-{3-chloro-4-[(1-methylethyl)oxy]phenyl}-1,3,4-thiadiazol-2-yl)phenyl]oxy}propan-1-ol]
 | 50 to 250 | 250 to 2800 |  |  | N[C@H](CO)COc1cc(Cl)c(-c2nnc(-c3ccc(OC(F)(F)F)c(Cl)c3)s2)cc1F [Entry 8, (2R)-2-amino-3-{[5-chloro-4-(5-{3-chloro-4-[(trifluoromethyl)oxy]phenyl}-1,3,4-thiadiazol-2-yl)-2-fluorophenyl]oxy}propan-1-ol]
 | ≤ 10 | ≤ 10 | 10 to 50 |  | (1R,2R)-2-amino-3-{[5-chloro-2-fluoro- 4-(5-{2-methyl-6-[(1- methylethyl)amino]pyridin-4-yl}-1,3,4- thiadiazol-2-yl)phenyl]oxy}-1- methylpropyl dihydrogen phosphate [Entry 100]
 |  |  |  | 250 to 2800 | Cc1cc(-c2nnc(-c3cc(F)c(OC[C@H](N)[C@H](C)O)cc3Cl)s2)cnc1NC(C)C [Entry 66, (2S,3S)-3-amino-4-{[5-chloro-2-fluoro-4-(5-{5-methyl-6-[(1-methylethyl)amino]pyridin-3-yl}-1,3,4-thiadiazol-2-yl)phenyl]oxy}butan-2-ol]
 | 50 to 250 | 250 to 2800 |  |  | CC(C)Oc1cc(Br)cc(-c2nnc(-c3cc(F)c(OC[C@H](N)CO)cc3Cl)s2)c1 [Entry 27, (2R)-2-amino-3-{[4-(5-{3-bromo-5-[(1-methylethyl)oxy]phenyl}-1,3,4-thiadiazol-2-yl)-5-chloro-2-fluorophenyl]oxy}propan-1-ol]

From patent US20100249071A1, “Modulators of S1P and Methods of Making And Using” (Exelixis, Inc., priority 2009, published 2010)
